Series [1] deals with human serum albumin (HSA) (Homo sapiens, UniProt P02768). In words: HPAC zonal elution on CHIRALPAK HSA column, bound fraction determination. Particulars: for Bound Fraction (%b) / Retention factor (k): values at 100% aqueous buffer, extrapolated from log k vs % ACN (11-16%), 67 mM potassium phosphate buffer pH 7.0, 25 °C; for experimental %b to HSA (controls): ACN in mobile phase ranging from 2% to 20%. The procedure: Binding affinity studies were conducted using a series of commercially available synthetic cannabinoids (Figure 1). […] The binding affinity of the synthetic cannabinoids to HSA was measured based on previously established methods using HPAC [15, 35, 36]. […] The analyses were performed using zonal elution in reversed-phase mode. A potassium phosphate buffer solution (67 mM, pH 7.0) was selected as the mobile phase due to HSA’s stability in phosphate buffers, and to closely mimic physiological conditions. Several studies describe the use of this buffer in protein binding studies mimicking the physiological conditions of human plasma.
human serum albumin (HSA), sequence (P02768 25-609): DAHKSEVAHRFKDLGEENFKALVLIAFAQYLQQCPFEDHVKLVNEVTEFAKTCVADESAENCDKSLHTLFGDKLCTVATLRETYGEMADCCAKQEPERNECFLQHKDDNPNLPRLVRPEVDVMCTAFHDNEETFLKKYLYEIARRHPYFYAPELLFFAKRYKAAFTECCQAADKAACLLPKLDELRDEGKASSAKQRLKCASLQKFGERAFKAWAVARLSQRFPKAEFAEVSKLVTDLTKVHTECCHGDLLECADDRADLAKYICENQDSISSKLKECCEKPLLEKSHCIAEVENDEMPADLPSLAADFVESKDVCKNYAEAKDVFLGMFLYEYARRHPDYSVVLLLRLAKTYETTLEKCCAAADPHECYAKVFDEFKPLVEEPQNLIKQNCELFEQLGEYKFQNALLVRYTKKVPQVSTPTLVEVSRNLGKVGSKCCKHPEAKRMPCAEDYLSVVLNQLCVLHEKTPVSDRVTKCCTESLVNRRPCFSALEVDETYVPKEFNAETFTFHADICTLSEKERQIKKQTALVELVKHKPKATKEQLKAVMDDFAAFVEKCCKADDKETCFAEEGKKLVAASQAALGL
ACN was chosen for the HSA studies, as it is one of the most commonly used organic modifiers in HSA columns. However, a low percentage of the organic modifier was necessary to prevent protein denaturation and prolong the column’s lifespan. Additionally, the presence of an organic modifier must be carefully considered, as it can alter the number of available binding sites by affecting the spatial conformation of the protein [41].
To calculate the bound fraction (%b) to HSA, different proportions of organic modifier were added to the mobile phase, ranging from 11% to 15%. In the Supplementary Materials (Figures S1–S6), representative chromatograms for each synthetic cannabinoid are shown, as examples. […] All analyses were performed in triplicate. […] To determine the %b values in a 100% aqueous buffer, an extrapolation was performed by plotting the logarithm of the retention factor (log k) against the percentage of the organic modifier (Figure S7, Supplementary Materials).
To determine the experimental %b values for these controls, different proportions of ACN were added to the mobile phase, ranging from 2% to 20%.
The sample injections (10 µL) were carried out in triplicate, and the flow rate was set to 0.5 mL/min.
(§1) The analyses were performed in reversed-phase mode using as mobile phases mixtures of 67 mM potassium phosphate buffer solution (pH 7.0) with different proportions of ACN. […] All chromatographic analyses were performed at 25 ± 2 °C, under isocratic mode, with UV detection at 220, 254, and 300 nm. All mobile phases were prepared in a volume/volume ratio (v/v), filtered through polyamide membrane filters of 0.2 µm pore size from Whatman® GmbH (Dassel, Germany), and degassed in an ultrasonic bath (Soltec® Sonica® Ultrasonic cleaner) for at least 15 min before use.
Zonal analysis was the approach selected for the development of this work. The retention of the analyte is directly related to its interaction with the immobilized HSA, and can be described with Equation (1).(1) k=(KA1n1+…+KAnnn)mL/VM
The retention factor (k) is related to the number of binding sites and to their corresponding equilibrium constants (KA). VM represents the void volume and mL the total moles of the analyte binding sites. Equation (2) was used to calculate the retention factor [58].(2) k=tr−t0/t0
tr corresponds to the retention time of the analyte and t0 to the dead time. The t0 was taken from each individual run and was considered to be equal to the solvent front.
One application of zonal elution in HPAC is to measure the binding affinity of a drug to an immobilized protein.

For series [2], the target named is T1, HSA site I (Homo sapiens, UniProt P02768).
T1 construct: catalogue number not given
T1 sequence (P02768 25-609): as above
In words: Zonal displacement chromatography on HSA column with warfarin (site I probe). It is filed as binding. The following applies: competitor warfarin 5-20 µM in mobile phase; 13% ACN; plot of 1/k vs competitor concentration. The procedure:
(§2) To gain deeper insights into HSA binding, displacement studies were conducted to further investigate the binding sites of the synthetic cannabinoids on this protein. […] These competitors are commonly used in displacement studies to elucidate binding interactions at specific HSA sites.
(§3) Various concentrations of the competitors were added to the mobile phase, based on previous studies.
(§4) The chromatographic data are plotted as 1/k versus the competitor concentration.
as §1
(§5) Stock solutions of all synthetic cannabinoids were prepared in EtOH at the concentration of 0.2 mg/mL and further diluted with the mobile phase, the potassium phosphate buffer (67 mM, pH 7.0), to a final concentration of 50 μg/mL. All working solutions were filtered through a membrane of 0.45 µm pore size and vortexed for at least 30 s before injection. […] All solutions were stored at 4 °C. […] These concentrations were selected based on previous displacement studies. An aqueous buffer of a 67 mM solution of potassium phosphate was prepared by adjusting the pH to 7.0 with a solution of saturated NaOH. The aqueous buffer pH was controlled with a Crison® BasiC 20 pH meter.
(§6) Equation (5) can be used to describe the impact of the competitor (I) on the retention time of each analyte (A) [32, 58](5) 1/k=VMKI[I]/KAmL+VM/KAmL where KI is the association equilibrium constant of I at the binding site of competition with A, [I] is the concentration of the competitor in the mobile phase, and KA is the association equilibrium constant of A at the binding site of competition with I.
(§7) If a direct competition between the analyte and the competing agent occurs, a straight line with a positive slope is observed in the plot of 1/k versus [I]; if allosteric competition between the analyte and the competing agent occurs, a straight line with a negative slope is observed in the plot of 1/k versus [I]; and if random variations are observed, no competition between the analyte and the competing agent occurs.

The target in series [3] is T2, HSA site II (Homo sapiens, UniProt P02768).
T2 construct: catalogue number not given
T2 sequence (P02768 25-609): as above
In words: Zonal displacement chromatography on HSA column with (S)-ibuprofen and L-tryptophan (site II probes). It counts as binding. Particulars: 13% ACN; for Interaction with (S)-ibuprofen on HSA: competitor (S)-ibuprofen 5-20 µM in mobile phase, negative slope of 1/k vs concentration; for Binding profile at HSA Site II: competitor L-tryptophan 5-20 µM in mobile phase, plot of 1/k vs competitor concentration. How it is done:
as §2, §3, §4, §1, §5, §6, §7

Series [4] has as its system HSA. Particulars: cited from earlier work.
Details of series [5]: method as in PMID 26810883. The following applies: ultrafiltration and LC-MS; cited from earlier work.
Series [6] relates to HSA. The following applies: cited from earlier work. The source holds these as a separate data set.

Entries after “also recorded” stand apart in the source; their conditions may differ.

Regarding `CC(C)[C@H](NC(=O)c1nn(CC2CCCCC2)c2ccccc12)C(N)=O`, in series [1], the “Bound Fraction (%b)” value is recorded as 99.7% and the “Retention factor (k)” value is reported as 294.40. Besides, in series [2], the “Binding profile at HSA Site I” value was “bind to both site I and site II of HSA; also recorded: Binding occurs (competition with warfarin)”. Besides, in series [3], the “Interaction with (S)-ibuprofen on HSA” value is on record as “exhibits allosteric interactions with (S)-ibuprofen; also recorded: Allosterically interacts with (S)-ibuprofen”; the “Binding profile at HSA Site II” value is “bind to both site I and site II of HSA; also recorded: Binding occurs (competition with L-tryptophan)”.

As to `COC(=O)[C@@H](NC(=O)c1nn(CCCCCF)c2ccccc12)C(C)C` [5F-AMB], in series [1], the “Bound Fraction (%b)” value was 98.9% and the “Retention factor (k)” value is on record as 87.30. Also, the “Binding profile at HSA Site I” value in series [2] is “compete with warfarin for site I; also recorded: Binding occurs (competition with warfarin)”. In addition, in series [3], the “Interaction with (S)-ibuprofen on HSA” value is listed as “interact allosterically with (S)-ibuprofen; also recorded: Allosterically interacts with (S)-ibuprofen” and the “Binding profile at HSA Site II” value is “do not compete with L-tryptophan; also recorded: Binding does not occur (no competition with L-tryptophan)”.

On to `CCCCCn1nc(C(=O)N[C@H](C(N)=O)C(C)C)c2ccccc21` [AB-PINACA], for which, in series [1], the “Bound Fraction (%b)” value is given as 98.7% and the “Retention factor (k)” value is listed as 79.11. The “Binding profile at HSA Site I” value in series [2] was “compete with warfarin for site I; also recorded: Binding occurs (competition with warfarin)”. In series [3], the “Interaction with (S)-ibuprofen on HSA” value is “interact allosterically with (S)-ibuprofen; also recorded: Allosterically interacts with (S)-ibuprofen” and the “Binding profile at HSA Site II” value is “do not compete with L-tryptophan; also recorded: Binding does not occur (no competition with L-tryptophan)”.

As to `CC(C)(C)[C@H](NC(=O)c1nn(Cc2ccc(F)cc2)c2ccccc12)C(N)=O` [ADB-FUBINACA], in series [1], the “Bound Fraction (%b)” value is listed as 99.8% and the “Retention factor (k)” value was 619.87. In addition, the “Binding profile at HSA Site I” value in series [2] is “neither site I nor site II is its primary binding site in HSA; also recorded: Binding does not occur (no competition with warfarin)”. In addition, in series [3], the “Interaction with (S)-ibuprofen on HSA” value is “Allosterically interacts with (S)-ibuprofen” and the “Binding profile at HSA Site II” value is given as “neither site I nor site II is its primary binding site in HSA; also recorded: Binding does not occur (no competition with L-tryptophan)”.

Take `COC(=O)[C@@H](NC(=O)c1nn(Cc2ccc(F)cc2)c2ccccc12)C(C)C` [AMB-FUBINACA]: in series [1], the “Bound Fraction (%b)” value was 99.7% and the “Retention factor (k)” value is given as 326.38. Besides, in series [2], the “Binding profile at HSA Site I” value is given as “compete with warfarin for site I; also recorded: Binding occurs (competition with warfarin)”. For the same molecule, in series [3], the “Interaction with (S)-ibuprofen on HSA” value is reported as “interact allosterically with (S)-ibuprofen; also recorded: Allosterically interacts with (S)-ibuprofen” and the “Binding profile at HSA Site II” value is reported as “do not compete with L-tryptophan; also recorded: Binding does not occur (no competition with L-tryptophan)”.

Turning to `O=C(c1cccc2ccccc12)c1nc2ccccc2n1CCCCCF` [FUBIMINA], in series [1], the “Bound Fraction (%b)” value is recorded as 99.9% and the “Retention factor (k)” value is reported as 968.23.

On to `N[C@@H](Cc1c[nH]c2ccccc12)C(=O)O` [L-Tryptophan, L-tryptophan], for which the “Affinity constant of competitor for HSA (Lit.)” value in series [4] was “KI L-Tryptophan (M^−1) (Lit. 4.4 × 10^4 M^−1) [55]”.

Turning to `Cc1c(C(=O)c2cccc3ccccc23)c2cccc3c2n1[C@H](CN1CCOCC1)CO3` [WIN 55,212-2], the plasma protein binding in series [5] was 95%.

For the molecule `CC(=O)CC(c1ccccc1)c1c(O)c2ccccc2oc1=O` (centres unmarked) [Warfarin, warfarin], the “Affinity constant of competitor for HSA (Lit.)” value in series [4] is “KI Warfarin (M^−1) (Lit. 3.3 × 10^5 M^−1) [55]”.

`CN(C)CCCN1c2ccccc2Sc2ccc(Cl)cc21` [chlorpromazine, reference compound]: the “experimental %b to HSA (controls)” value in series [1] worked out at 82.12%. Moreover, in series [6], the “reported %b to HSA” value is more than 90%.

As to `COc1ccc2c(c1)c(CC(=O)O)c(C)n2C(=O)c1ccc(Cl)cc1` [indomethacin], in series [6], the “reported %b to HSA” value is 97.8%.

As for `Cc1ncc([N+](=O)[O-])n1CCO` [metronidazole, reference compound], in series [1], the “experimental %b to HSA (controls)” value was 19.78%. In addition, the “reported %b to HSA” value in series [6] is given as 20%.
